This is an account of results in patent US20190071416A1, “COMPOUNDS FOR TREATMENT OF CANCER AND EPIGENETICS” (Agency For Science, Technology and Research, priority 2015, published 2019).

Data set [1] has as its system A549. Description: Cell proliferation assay (CellTiter-Glo), A549. It is filed as cell-based. The conditions noted are these: Homo sapiens, A549, 72 h; 3 days. The method, then: (§1) The cell proliferation assays were tested in several cell lines, including HepG2,HCT116, A549, HPAF-II, CFPAC-1,HuH7, SNU398,Hep3B, and HEK293. All cell lines are from ATCC. HepG2, HPAF-II and HEK293 are cultured in Eagle's MEM media supplemented with fetal bovine serum. HCT116 is cultured in McCoy media supplemented with fetal bovine serum. Huh-7 is cultured in DMEM low glucose (1000 mg/L glucose) with 10% FBS, 1% L-Glutamate and 1% Penicillin/Streptomycin. SNU398 is cultured in RPMI with 10% FBS with 1% L-Glutamate and 1% Penicillin/Streptomycin. Hep3B is cultured in Eagle's MEM with 10% FBS, 1% L-Glutamate and 1% Penicillin/Streptomycin. A549 is cultured in RPMI media supplemented with fetal bovine serum while CFPAC-1 is cultured in IMDM media supplemented with fetal bovine serum. All media and serum are purchased from Gibco (Lifetech). All cells were grown in a temperature controlled incubator at 37° C. and 5% CO2.
(§2) Cell proliferation assay was performed using CellTiter-Glo Luminescent Cell Viability Assay (Promega) following manufacturer's instructions. The cell-line of interest was treated with compounds that were serial diluted in its respective media. Plates were incubated for 3 days at 37° C. in 5% CO2. After 3 days, an equal volume of Cell Titer Glo reagent was added. Plates were rocked on a rotator for 2 h. 100 μL of each well were transferred to a 96-well opaque plate, and luminescence emitted was measured with the Tecan Safire II.
Background: Cellular ATP, detected with luciferase, serves as a proxy for viable cell number.

The test system of data set [2] is CFPAC-1. Description: Cell proliferation assay (CellTiter-Glo), CFPAC-1. The conditions noted are these: Homo sapiens, CFPAC-1, 72 h; 3 days. The data set is classed as cell-based. Here is the method: as §1, §2
For data set [3], the system named is HPAF-II. The data set is described as follows: Cell proliferation assay (CellTiter-Glo), HPAF-II. The conditions noted are these: Homo sapiens, 72 h, 3 days. The data set is classed as cell-based. The method, then:
as §1, §2

Data set [4] deals with HCT-116. Description: Cell proliferation assay (CellTiter-Glo), HCT-116. The data set is classed as cell-based. The conditions noted are these: Homo sapiens, HCT-116, 72 h; 3 days. The method, then:
as §1, §2

Data set [5] addresses T1, SMYD3 (Homo sapiens, UniProt Q9H7B4).
T1 sequence (Q9H7B4 1-428): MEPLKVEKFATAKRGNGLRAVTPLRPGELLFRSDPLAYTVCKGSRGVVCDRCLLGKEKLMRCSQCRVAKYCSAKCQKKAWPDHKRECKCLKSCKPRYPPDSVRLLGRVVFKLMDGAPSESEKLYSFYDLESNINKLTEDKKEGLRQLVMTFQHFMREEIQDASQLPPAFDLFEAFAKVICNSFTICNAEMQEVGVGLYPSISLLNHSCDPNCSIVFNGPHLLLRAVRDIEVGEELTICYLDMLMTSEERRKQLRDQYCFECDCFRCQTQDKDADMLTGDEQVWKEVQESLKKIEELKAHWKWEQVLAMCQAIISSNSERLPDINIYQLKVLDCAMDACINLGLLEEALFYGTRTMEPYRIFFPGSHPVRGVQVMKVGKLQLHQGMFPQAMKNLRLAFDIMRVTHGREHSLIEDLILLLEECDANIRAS
The data set is described as follows: SMYD3 biochemical assay (MTase-Glo, MAP3K2 peptide substrate). In a few lines:
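Methylation of MAP3K2 peptide (10 µM final) with SAM (1.0 µM final) by SMYD3, 30 min at room temperature. SAH formed was enzymatically converted to ATP and detected as luminescence with MTase-Glo reagents; IC50 by non-linear regression.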

Data set [6] relates to HepG2. The data set is described as follows: Cell proliferation assay (CellTiter-Glo), HepG2. The conditions noted are these: Homo sapiens, HepG2, 72 h; 3 days. The data set is classed as cell-based. Here is the method:
as §1, §2

For data set [7], the system named is Hep G2 cells. Description: Soft agar colony formation assay. It is filed as cell-based, human. The conditions noted are these: Homo sapiens, HepG2. The method, then: Hep G2 cells were purchased from ATCC. Hep G2 cells were maintained in Eagle's Minimum Essential Medium (Sigma, Cat No: #M0643) supplemented with 10% Fetal Bovine Serum (Hyclone, Cat No: SV30087.03), 2 mM L-glutamine, 100 units/mL penicillin and 100 μg/mL streptomycin (Life Technologies, Cat No: 10378-016). The soft agar assays were performed in concordance to the ETC approved method report for soft agar assay (ETC document number: RD0019). Briefly, 600 μL of 0.6% agar was added to 24-well plate (Corning, Cat No: 3738) to form the base layer. This is followed by the addition of 500 μL of 0.36% agar middle layer (containing 10′000Hep G2 cells). Lastly, 500 μL of fresh growth medium (containing the corresponding serially diluted compound) was added above the middle layer. The plates were incubated at 37° C. with 5% carbon dioxide in a humidified incubator for 1 to 2 weeks. 70 μL of thiazolyl blue tetrazolium bromide (5 mg/mL, Sigma Cat No: M5655) was added to each well and the plates were incubated at 37° C. for 2 h. Colonies were counted with GelCount® instrument (Oxford Optronix). The colony counts were plotted against compound concentrations using the Graphpad Prism software. In addition, the software was used to perform non-linear curve fitting and the calculation of IC50.

In data set [8] the target is ubiquitin specific protease 7 (Homo sapiens, UniProt Q93009). The conditions noted are these: cited from earlier work.
Data set [9] is described as follows: Mouse liver microsomes stability test. The data set is classed as in vitro ADME. (Microsomes from liver hold many membrane-bound enzymes, among them those of drug oxidation.)
Data set [10] has as its system MAP3K2 methylation (me2/me3-Lys 260). Description: SMYD3 mediated methylation of MAP3K2 in HEK293 cells (Western blot). The data set is classed as cell-based, Human. The conditions noted are these: 25 μM. Here is the method: (§3) The cells were seeded in 6 well plates. After seeding for 24 h, the cells were treated with either DMSO or 25 μM compound and incubated for 24 hr. The cells were trypsinized and the lysate was extracted with RIPA buffer (Santa Cruz). The total protein concentration of lysate is quantified using the standard Bradford assay (Biorad protein assay, microplate standard assay).
Western blot analysis for detecting methylated MAP3K2 was carried out using a customized Anti-me2/me3-Lys 260 MAP3K2 at 1:500 and the total MAP3K2 was detected using Anti-MEKK2 (AB33918) using a 1:10,000 dilution.
B019 was further tested for its ability to inhibit SMYD3 in cells through its effects on cellular MAP3K2 methylation. This was performed using an antibody against the MAP3K2 (me2/me3), Anti-ME2/ME3-K260-MAP3K2 (1:500) and total MAP3K2, Anti-MEKK2 #ab33918 (1:10,000).

Data set [11] is described as follows: Human liver microsomes stability test. It is filed as in vitro ADME.
For data set [12], the target named is T1, SMYD3. The conditions noted are these: assay reported in the publication; cited from earlier work.
Data set [13] concerns the target T1, SMYD3. The data set is described as follows: Target engagement assay, SMYD3 levels by Western blot in HEK293 cells transfected with Myc-SMYD3. Details: host or cells: HEK293 (ATCC). The conditions noted are these: compared to B019. It is filed as cell-based. The method, then:
The target engagement assay was performed with HEK293 that is engineered to overexpress SMYD3 (HEK293-SMYD3). The plasmid SMYD3 (Myc-DDK-tagged-Human SET and MYND domain containing 3) was purchased from Origene (RC230064) and transfected with lipofectamine 2000 (Invitrogen) into HEK293 (ATCC). The cell line is cultured in Eagle's MEM media supplemented with fetal bovine serum and geneticin (Invitrogen). Presence of over-expressed SMYD3 is confirmed with western blot with antibody against SMYD3 and the MYC tag as well as with RT-PCR with SMYD3 primers.
as §3
Western blot analysis was performed using antibody against SMYD3 in HEK293 cells over-expressing SMYD3 (HEK293-SMYD3) treated with compound at different time points. 15.0 μg of cell lysate was diluted in 2× Laemmli sample buffer (Bio-Rad) and boiled at 100° C. on heat block for 5 min. Lysates were separated using NuPAGE® 4-12% Bis-Tris precast polyacrylamide gels (Lifetech) at 200 V, […] for 40 min. […]

The mark [14] stands for this setting: Table 1, MAP3K2 peptide as substrate, read-out: IC50.
Where [15] appears, read: Table 2, read-out: Biochemical assay IC50.
[16] abbreviates: Table 3, MTase assay, MAP3K2 peptide substrate, read-out: IC50.
Where [17] appears, read: Table 4, prior art compounds, read-out: IC50.

Where two headings read alike, the source gives them in different places.

ubiquitin specific protease 7, sequence (Q93009 whole entry): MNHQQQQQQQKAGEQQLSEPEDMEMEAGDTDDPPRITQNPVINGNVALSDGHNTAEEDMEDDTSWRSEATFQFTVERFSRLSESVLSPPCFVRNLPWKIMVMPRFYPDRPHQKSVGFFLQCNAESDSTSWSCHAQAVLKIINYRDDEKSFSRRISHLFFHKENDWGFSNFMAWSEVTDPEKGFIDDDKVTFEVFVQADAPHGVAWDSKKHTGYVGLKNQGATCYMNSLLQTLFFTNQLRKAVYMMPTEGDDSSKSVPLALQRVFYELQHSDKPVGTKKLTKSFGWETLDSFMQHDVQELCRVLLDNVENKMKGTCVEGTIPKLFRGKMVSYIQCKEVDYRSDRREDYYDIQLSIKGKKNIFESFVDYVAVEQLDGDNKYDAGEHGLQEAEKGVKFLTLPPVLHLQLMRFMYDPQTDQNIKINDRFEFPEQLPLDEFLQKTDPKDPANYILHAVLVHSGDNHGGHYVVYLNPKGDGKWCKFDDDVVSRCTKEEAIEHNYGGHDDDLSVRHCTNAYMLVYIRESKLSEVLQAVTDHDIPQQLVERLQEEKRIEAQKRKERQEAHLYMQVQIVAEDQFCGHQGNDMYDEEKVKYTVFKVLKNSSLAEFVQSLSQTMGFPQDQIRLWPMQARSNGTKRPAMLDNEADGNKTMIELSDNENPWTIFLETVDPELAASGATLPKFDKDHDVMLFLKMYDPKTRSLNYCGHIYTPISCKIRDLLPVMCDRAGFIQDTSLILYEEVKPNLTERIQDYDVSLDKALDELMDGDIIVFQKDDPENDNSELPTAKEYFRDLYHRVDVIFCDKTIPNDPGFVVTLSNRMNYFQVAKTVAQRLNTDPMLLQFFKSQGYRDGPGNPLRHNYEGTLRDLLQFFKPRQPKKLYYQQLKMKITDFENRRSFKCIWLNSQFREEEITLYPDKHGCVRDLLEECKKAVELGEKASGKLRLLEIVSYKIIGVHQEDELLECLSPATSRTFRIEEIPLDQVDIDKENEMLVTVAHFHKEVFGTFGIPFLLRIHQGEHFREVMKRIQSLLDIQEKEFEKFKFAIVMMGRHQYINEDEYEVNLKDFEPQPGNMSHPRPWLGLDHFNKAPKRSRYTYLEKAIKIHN

As a reminder, the GI50 is the concentration giving 50% growth inhibition. Low readings indicate more potent growth inhibition, high ones less potent growth inhibition. As to `CCCOC(=O)N1CCN(C(=O)c2ccc3c(Cl)c4c(nc3c2)CCC(CCN)C4)CC1` (centres unmarked) [A066, Propyl 4-(7-(2-aminoethyl)-9-chloro-5,6,7,8-tetrahydroacridine-3-carbonyl)piperazine-1-carboxylate], the GI50 in data set [1] was 18.4 µM; in [2], 15.3 µM; in data set [3], 11.1 µM; in data set [4], 24.9 µM; in data set [6] it was 33.1 µM. Further, the results for the IC50 in data set [5] (setting [14]), in data set [5] (setting [15]) and in [5] (setting [16]) were 0.0461 µM, 0.0461 µM and 0.3 µM, respectively.

For orientation: inhibition means the relative decrease from the control value, in per cent. For the compound `CCCOC(=O)N1CCN(C(=O)c2ccc3c(Cl)c4c(nc3c2)CC(c2ccccn2)CC4)C[C@H]1C` (stereo partly drawn) [A074, Propyl (2R)-4-(9-chloro-6-(pyridin-2-yl)-5,6,7,8-tetrahydroacridine-3-carbonyl)-2-methylpiperazine-1-carboxylate], the GI50 in data set [1] was found to be 15.8 µM; in data set [2], 36.9 µM; in [3] it was 50.4 µM; in [4], 11.4 µM; in [6], 10.7 µM. Moreover, the IC50 in data set [7] (Hep G2, soft agar) was found to be 0.71 µM; in data set [5] (setting [14]) it was 0.152 µM; in data set [5] (setting [15]) it was 0.152 µM; in data set [5] (setting [16]), 0.15 µM. In addition, in data set [7] (highest concentration tested (10 μM)), the inhibition at 10 µM was ~100%.

On to `CCCOC(=O)N1CCN(C(=O)c2ccc3c(Cl)c4c(nc3c2)CC(CCN)CC4)[C@@H](C)C1` (stereo partly drawn) [A088, Propyl (3S)-4-(6-(2-aminoethyl)-9-chloro-5,6,7,8-tetrahydroacridine-3-carbonyl)-3-methylpiperazine-1-carboxylate], for which the GI50 in data set [1] was 28.4 µM; in data set [2] it was 21.9 µM; in data set [3], 33.7 µM; in [4] it was 16.1 µM; in data set [6], 17.1 µM. The IC50 in data set [5] (setting [14]) is 0.092 µM; in data set [5] (setting [15]) it was 0.092 µM; in [5] (setting [16]) it was 0.09 µM.

On to `Cc1cccc(CN2CCC(CNC(=O)c3ccc4c(Cl)c5c(nc4c3)CCCC5)CC2)c1` [X2, reference compound], for which the “activity against ubiquitin specific protease 7” value in data set [8] is “act against”. The “activity against SMYD3” value in data set [5] is “not active”. Moreover, in data set [5] (setting [17]), the IC50 is 750 µM.

In the case of `CN1CCC(N2CCN(C(=O)c3ccc4c(Cl)c5c(nc4c3)CCCC5)CC2)CC1` [X3, reference compound], the “activity against ubiquitin specific protease 7” value in [8] is listed as “act against”. The “activity against SMYD3” value in [5] is recorded as “not active”. In addition, the IC50 in data set [5] (setting [17]) is 750 µM.

Consider `CCOC(=O)N1CCN(C(=O)c2ccc3c(Cl)c4c(nc3c2)CCCC4)CC1` [X4, ethyl 4-(9-chloro-5,6,7,8-tetrahydroacridine-3-carbonyl)piperazine-1-carboxylate, reference compound], for which the half-life was determined as 4 min in data set [9] (read-out: half-life, t1/2) and 9 min in data set [11] (read-out: half-life, t1/2). In data set [10], the “inhibition of methylation of MAP3K2 in cells” value is “unable to inhibit”. The IC50 in [5] (read-out: active against SMYD3) turned out to be 6.2 µM.

Turning to `O=C1Cc2cc(C(=O)N[C@H]3C[C@H]4CC[C@@H](C3)N4S(=O)(=O)CC3CCN(CCCC(F)(F)F)CC3)c(Cl)cc2N1` [X5], the “active against SMYD3” value in [12] is on record as 3 nM.

In the case of `CCOC(=O)N1CCN(C(=O)c2ccc3c(Cl)c4c(nc3c2)CCCC4)CC1` [ethyl 4-(9-chloro-5,6,7,8-tetrahydroacridine-3-carbonyl)piperazine-1-carboxylate], the target engagement entry in data set [13] is listed as “poor”. Moreover, the metabolic stability result in data set [9] (high metabolic clearance) and in [11] (high metabolic clearance) was “poor” throughout. Further, the “activity against SMYD3” value in data set [5] is listed as “moderately active”.
